Experimental data from patent US20250346643A1, “TROPOMYOSIN KINASE RECEPTOR (TRK) LIGANDS AS THERAPEUTICS TO SUPPORT LIVER REGENERATION” (Vanderbilt University, priority 2024, published 2025).

System: HSC-depleted mice (liver)
Experiment: Treatment of HSC-depleted mice with recombinant NTF3
Assay type: in vivo, mouse
Description: T cell isolation and adoptive transfer. CD8+ T cells were isolated from spleen and lymph nodes (brachial, inguinal, axillar, submandibular, superficial cervical and mesenteric) of Jedi and controls. Spleens and lymph nodes were collected in ice cold T cell media (RPMI [Gibco® 11875-093] supplemented by 10% FBS, 2 mM L-glutamine [Thermo Fisher Scientific, Waltham, MA; 25030-081], 1% MEM nonessential amino acids [Thermo Fisher Scientific, Waltham, MA; 11140050] and 1 mM sodium pyruvate [Thermo Fisher Scientific, Waltham, MA; 11360-070]). Spleen and lymph nodes were mechanically homogenized and filtered through a 70 μm cell strainer (Falcon®). The cell suspension was centrifuged for 10 min at 4° C., 300 g. Red blood cell (RBC) lysis was performed with RBC buffer (Thermo Fisher Scientific, Waltham, MA; A10492). Cells were then washed with T cell media, filtered through a 70 μm cell strainer and centrifuged for 10 min at 4° C., 300 g. The cell pellet was then resuspended in flow buffer (PBS, pH 7.4, 2 mM EDTA, 0.05% BSA) and CD8+ T cells enriched using the mouse CD8+ T cell isolation kit (STEMCELL technologies, Vancouver, Canada; 19853A) according to the manufacturer's instructions. Enriched CD8+ T cells were centrifuged for 10 min at 4° C., 300 g, and resuspended in PBS. Mice with less than 25 g body weight were injected with up to 12 million Jedi T cells and mice greater than 25 g body weight were injected by tail vein injection with 18 million Jedi T cells. Control mice were injected with either T cells from H-2K^d mice or with vehicle only. Mice were not injected with lentiviral GFP particles as previously described (Agudo et al., Nat Biotechnol. 2015; 33(12): 1287-1292; Agudo et al., 2018; 48(2): 271-285.e5) to avoid lentiviral GFP-expression of other cells such as hepatocytes.
Treatment with recombinant NTF3. Four months old mice were injected via tail vein for 4 consecutive days with recombinant NTF3 (STEMCELL technology, Vancouver, Canada; cat. 78074, lots 1000070683, 1000077434) diluted in sterile 0.9% saline (0.9% NaCl) or vehicle only. Mice were weighed daily and recombinant NTF3 given at 20 ng/g body weight or 100 ng/g body weight, respectively. Lyophilized NTF3 was solubilized in 0.1% BSA/PBS (bovine serum albumin, Sigma-Aldrich, St. Louis, MO; A3059) and stored at −80° C. until use.
Immunohistochemistry. For immunohistochemistry, formalin-fixed paraffin embedded sections were cut at 4 μm thickness and slides incubated at 65° C. for 30 min. Slides were deparaffinized in Histo-Clear® (National Diagnostics, Charlotte, NC; HS2001GLL) and rehydrated by an ethanol gradient. Heat antigen retrieval was performed in 10 mM sodium citrate (pH 6.0) in a pressure cooker (Cuisinart®, CPC-600C), 20 min at high-pressure, natural pressure release for 30 min, and cooled at room temperature (i.e., about 20° C. to about 22° C.) for 30 min. Endogenous peroxidase quenching was performed with 1.5% hydrogen peroxide (Sigma-Aldrich, St. Louis, MO; H1009) for 20 min, and slides washed twice in phosphate buffered saline (PBS) twice. Blocking was performed for 30 min with Protein Block, Serum-free (Agilent, Santa Clara, CA; X090930-2). The primary antibody (TABLE 1) was diluted in antibody diluent (Agilent, Santa Clara, CA; S080983-2) and applied to the slides in a wet chamber overnight at 4° C. After 2 washes in PBS, slides were incubated with the appropriate secondary antibody (TABLE 1) for 30 min followed by two washes in PBS. […] The same reveal time was then used on all experimental slides. Slides were stained with hematoxylin (Sigma-Aldrich, St. Louis, MO; GHS332) for 30 sec, washed gently in lukewarm tap water for 5 min, and washed twice in distilled water, followed by two washes in phosphate buffered saline (PBS, pH 7.4). Slides were washed in increasing ethanol/water gradients, followed by three washes in Histo-Clear®. […]

NTF3: neurotrophin-3, recombinant protein; HSC-derived hepatocyte mitogen, ligand of TRKA, TRKB, TRKC
IGFBP2 expression in hepatocytes (HSC-ablated mice, NTF3): only increased CCND1 but not IGFBP2 expression
liver-to-body weight ratio (HSC-depleted mice, NTF3 20 ng/g or 100 ng/g body weight, tail vein, 4 consecutive days (FIG. 10C)): dose-dependently increased
liver-to-body weight ratio, higher dose group (HSC-depleted mice, NTF3 100 ng/g body weight, 4 consecutive days): significant increase
number of CCND1+HNF4a+ nuclei (multiplex immunohistochemistry) (HSC-depleted mice, NTF3 20 or 100 ng/g (FIG. 10E-F)): dose-dependently increased
nuclear CCND1 in hepatocytes in the midlobular region (staining) (HSC-depleted mice, NTF3 vs vehicle (FIG. 10D)): increased nuclear CCND1
Ki67+ hepatocytes (HSC-depleted mice, NTF3 vs vehicle (FIG. 10G-H)): increase
PCNA in whole liver lysates (Western blotting) (HSC-depleted mice, NTF3 vs vehicle (FIG. 10I, 11B)): increased
CCND1 in whole liver lysates (Western blotting) (HSC-depleted mice, NTF3 vs vehicle (FIG. 10I, 11C)): increased
